US11591326B2, “Inhibitors of protein arginine methyltransferase 5 (PRMT5), pharmaceutical products thereof, and methods thereof” (PHARMABLOCK SCIENCES (NANJING), INC., priority 2018, dated 2023)

Biological target: Human recombinant PRMT5 in complex with human recombinant MEP50 (Homo sapiens (Human), UniProt O14744)
Test: PRMT5/MEP50 AlphaLISA enzyme inhibitory assay
Type: biochemical
Settings: PRMT5/MEP50 25 nM, SAM 10 μM, Biotin-H4 peptide 30 nM
From the text: Human recombinant PRMT5 in complex with human recombinant MEP50, co-expressed in an insect cell/baculovirus expression system was purchased from Reaction Biology (Malvern, Pa.). […] Anti-H4R3-Me AlphaLISA acceptor beads and Streptavidin labeled AlphaLISA donor beads were obtained from PerkinElmer (Waltham, Mass.). S-adenosylmethionine (SAM), Tween20, dimethylsulfoxide (DMSO), and Tris buffer were obtained from Sigma at the highest level of purity available.
General Procedure for PRMT5/MEP50 AlphaLISA Enzyme Inhibitory Assays: Assays were performed in the buffer consisting of 50 mM Tris, pH 8.5, 5 mM MgCl2, 50 mM NaCl with 0.01% Tween20 and 1 mM DTT added right before the assay. 2.5 μL of compound solution in the assay buffer with 4% DMSO and 5 μL of PRMT5/MRP50 complex/SAM mixture solution in the assay buffer which was pre-incubated for 30 minutes were added into a white low volume 384 well microtiter plate. This mixture solution was incubated for 15 minutes with gentle shaking at room temperature. Methyl transfer reaction was initiated by adding 2.5 μL of Biotin-H4 (1-21) peptide substrate solution in the assay buffer. Final concentrations of PRMT5/MEP50, SAM, Biotin-H4 peptide substrate, and DMSO were 25 nM, 10 μM, 30 nM, and 1%, respectively. The reaction was allowed to perform for 120 minutes in dark with gentle shaking at room temperature after which 5 μL of Anti-H4R3-Me AlphaLISA acceptor beads in detection buffer from the manufacturer was added into the reaction mixture followed by incubation for 60 minutes. 10 μL of Streptavidin labeled AlphaLISA donor beads in detection buffer was added into the mixture followed by 30 minute incubation. Final acceptor and donor beads concentrations were 10 μg/mL. Plates were read on an Envision multimode plate reader from PerkinElmer (Waltham Mass., USA) with an excitation wavelength of 680 nm and emission wavelength of 615 nm. IC50 values of inhibitors were obtained by fitting the fluorescence intensity vs inhibitor concentrations in a sigmoidal dose-response curve (variable slopes, four parameters) using Prism 7 (La Jolla, Calif.).

Sequence of Human recombinant PRMT5 in complex with human recombinant MEP50 (O14744 whole entry): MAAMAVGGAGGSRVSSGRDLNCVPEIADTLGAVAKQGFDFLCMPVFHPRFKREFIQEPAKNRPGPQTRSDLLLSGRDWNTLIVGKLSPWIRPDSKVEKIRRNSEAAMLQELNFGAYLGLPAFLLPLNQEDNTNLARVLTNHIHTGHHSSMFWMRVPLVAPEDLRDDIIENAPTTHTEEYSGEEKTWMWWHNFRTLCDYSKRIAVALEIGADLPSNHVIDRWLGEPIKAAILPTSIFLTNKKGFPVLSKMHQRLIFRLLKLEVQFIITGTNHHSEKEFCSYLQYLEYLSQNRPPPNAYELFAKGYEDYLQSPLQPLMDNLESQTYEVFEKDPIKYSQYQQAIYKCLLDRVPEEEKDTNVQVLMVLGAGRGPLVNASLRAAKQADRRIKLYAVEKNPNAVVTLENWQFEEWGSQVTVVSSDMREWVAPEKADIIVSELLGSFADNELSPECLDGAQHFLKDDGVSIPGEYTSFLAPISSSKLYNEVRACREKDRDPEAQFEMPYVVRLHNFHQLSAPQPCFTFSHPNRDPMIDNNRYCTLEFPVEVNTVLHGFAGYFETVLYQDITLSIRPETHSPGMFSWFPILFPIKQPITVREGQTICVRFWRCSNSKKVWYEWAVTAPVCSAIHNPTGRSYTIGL
Sequence of Human recombinant PRMT5 in complex with human recombinant MEP50 (Q9BQA1 whole entry partner): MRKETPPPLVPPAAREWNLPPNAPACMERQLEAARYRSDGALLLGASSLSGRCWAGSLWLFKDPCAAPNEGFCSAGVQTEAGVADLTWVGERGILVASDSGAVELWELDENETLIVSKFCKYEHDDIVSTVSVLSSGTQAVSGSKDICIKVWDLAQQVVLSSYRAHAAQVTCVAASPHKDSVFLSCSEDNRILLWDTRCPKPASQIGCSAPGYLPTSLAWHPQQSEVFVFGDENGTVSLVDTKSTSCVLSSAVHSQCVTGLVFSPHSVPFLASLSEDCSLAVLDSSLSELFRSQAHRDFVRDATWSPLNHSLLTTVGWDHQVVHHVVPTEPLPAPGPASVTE

Structure (SMILES)	IC50 [µM]
Cn1cc(-c2ccc3c(c2)C(=O)N(C[C@@H](O)CN2CCc4ccccc4C2)CC3)cn1 [Compound 13, (S)-2-(3-(3,4-dihydroisoquinolin-2(1H)-yl)-2-hydroxypropyl)-7-(1-methyl-1H-pyrazol-4-yl)-3,4-dihydroisoquinolin-1(2H)-one]	0.578
O=C1c2cc(NC3CCOCC3)cnc2CCN1CC(O)CN1CCc2ccccc2C1 (centres unmarked) [Compound 18, 6-(3-(3,4-dihydroisoquinolin-2(1H)-yl)-2-hydroxypropyl)-3-((tetrahydro-2H-pyran-4-yl)amino)-7,8-dihydro-1,6-naphthyridin-5(6H)-one]	2.23
CS(=O)(=O)N1CC(Nc2ccc3c(c2)C(=O)N(C[C@@H](O)CN2CCc4ccccc4C2)CC3)C1 [Compound 8, (S)-2-(3-(3,4-dihydroisoquinolin-2(1H)-yl)-2-hydroxypropyl)-7-((1-(methylsulfonyl)azetidin-3-yl)amino)-3,4-dihydroisoquinolin-1(2H)-one]	0.232
Cc1nnc(Nc2ccc3c(c2)C(=O)N(C[C@H](O)CN2CCc4ccccc4C2)CCO3)o1 [Compound 42, (R)-4-(3-(3,4-dihydroisoquinolin-2(1H)-yl)-2-hydroxypropyl)-7-((5-methyl-1,3,4-oxadiazol-2-yl)amino)-3,4-dihydrobenzo[f][1,4]oxazepin-5(2H)-one]	0.0202
CN1CC(Nc2ccc3c(c2)C(=O)N(C[C@@H](O)CN2CCc4ccccc4C2)CC3)C1 [Compound 9, (S)-2-(3-(3,4-dihydroisoquinolin-2(1H)-yl)-2-hydroxypropyl)-7-((1-methylazetidin-3-yl)amino)-3,4-dihydroisoquinolin-1(2H)-one]	2.44
CN1CC(Nc2ccc3c(c2)C(=O)N(C[C@H](O)CN2CCc4ccccc4C2)CCO3)CC1=O (stereo partly drawn) [Compound 43, 4-((R)-3-(3,4-dihydroisoquinolin-2(1H)-yl)-2-hydroxypropyl)-7-((1-methyl-5-oxopyrrolidin-3-yl)amino)-3,4-dihydrobenzo[f][1,4]oxazepin-5(2H)-one]	0.0517
Cn1ccc(Nc2ccc3c(c2)C(=O)N(C[C@H](O)CN2CCc4ccccc4C2)CCO3)cc1=O [Compound 40, (R)-4-(3-(3,4-dihydroisoquinolin-2(1H)-yl)-2-hydroxypropyl)-7-((1-methyl-2-oxo-1,2-dihydropyridin-4-yl)amino)-3,4-dihydrobenzo[f][1,4]oxazepin-5(2H)-one]	0.0122
CC1Cc2ccc(NC3COC3)cc2C(=O)N1CC(O)CN1CCc2ccccc2C1 (centres unmarked) [Compound 21, 2-(3-(3,4-dihydroisoquinolin-2(1H)-yl)-2-hydroxypropyl)-3-methyl-7-(oxetan-3-ylamino)-3,4-dihydroisoquinolin-1(2H)-one]	0.48
CC(=O)N1CC2C(C1)C2Nc1ccc2c(c1)C(=O)N(CC(O)CN1CCc3ccccc3C1)CCO2 (centres unmarked) [Compound 56, 7-((3-acetyl-3-azabicyclo[3.1.0]hexan-6-yl)amino)-4-(3-(3,4-dihydroisoquinolin-2(1H)-yl)-2-hydroxypropyl)-3,4-dihydrobenzo[f][1,4]oxazepin-5(2H)-one]	1.1
CC(=O)N1C2CCC1CC(Nc1ccc3c(c1)C(=O)N(CC(O)CN1CCc4ccccc4C1)CCO3)C2 (centres unmarked) [Compound 55, 7-((8-acetyl-8-azabicyclo[3.2.1]octan-3-yl)amino)-4-(3-(3,4-dihydroisoquinolin-2(1H)-yl)-2-hydroxypropyl)-3,4-dihydrobenzo[f][1,4]oxazepin-5(2H)-one]	0.195
O=C1c2cc(-c3cncnc3)ccc2CCN1CC(O)CN1CCc2ccccc2C1 (centres unmarked) [Compound 14, 2-(3-(3,4-dihydroisoquinolin-2(1H)-yl)-2-hydroxypropyl)-7-(pyrimidin-5-yl)-3,4-dihydroisoquinolin-1(2H)-one]	0.158

Next, values leading:

IC50 [µM]	Structure (SMILES)
0.021	Cn1ccc(Nc2ccc3c(c2)C(=O)N(CC(O)CN2CCc4ccccc4C2)CC3)cc1=O (centres unmarked) [Compound 27, 2-(3-(3,4-dihydroisoquinolin-2(1H)-yl)-2-hydroxypropyl)-7-((1-methyl-2-oxo-1,2-dihydropyridin-4-yl)amino)-3,4-dihydroisoquinolin-1(2H)-one]
0.0224	O=c1c2cc(Nc3ccnnc3)ccc2cnn1CC(O)CN1CCc2ccccc2C1 (centres unmarked) [Compound 33, 2-(3-(3,4-dihydroisoquinolin-2(1H)-yl)-2-hydroxypropyl)-7-(pyridazin-4-ylamino)phthalazin-1(2H)-one]
0.132	Cn1cc(Nc2cnc3c(c2)C(=O)N(CC(O)CN2CCc4ccccc4C2)CC3)cn1 (centres unmarked) [Compound 20, 6-(3-(3,4-dihydroisoquinolin-2(1H)-yl)-2-hydroxypropyl)-3-((1-methyl-1H-pyrazol-4-yl)amino)-7,8-dihydro-1,6-naphthyridin-5(6H)-one]
0.061	Cn1ccc(Nc2ccc3c(c2)C(=O)N(CC(O)CN2CCc4ccccc4C2)CC3)n1 (centres unmarked) [Compound 23, 2-(3-(3,4-dihydroisoquinolin-2(1H)-yl)-2-hydroxypropyl)-7-((1-methyl-1H-pyrazol-3-yl)amino)-3,4-dihydroisoquinolin-1(2H)-one]
0.0563	O=C1c2cc(Nc3ccnnc3)cnc2OCCN1CC(O)CN1CCc2ccccc2C1 (centres unmarked) [Compound 47, 4-(3-(3,4-dihydroisoquinolin-2(1H)-yl)-2-hydroxypropyl)-7-(pyridazin-4-ylamino)-3,4-dihydropyrido[3,2-f][1,4]oxazepin-5(2H)-one]
0.303	O=c1c2cc(NC3COC3)ccc2ccn1CC(O)CN1CCc2ccccc2C1 (centres unmarked) [Compound 4, 2-(3-(3,4-dihydroisoquinolin-2(1H)-yl)-2-hydroxypropyl)-7-(oxetan-3-ylamino)isoquinolin-1(2H)-one]
0.0061	O=C1c2cc(Nc3ccnnc3)ccc2C2(CC2)CN1CC(O)CN1CCc2ccccc2C1 (centres unmarked) [Compound 35, 2′-(3-(3,4-dihydroisoquinolin-2(1H)-yl)-2-hydroxypropyl)-7′-(pyridazin-4-ylamino)-2′,3′-dihydro-1′H-spiro[cyclopropane-1,4′-isoquinolin]-1′-one]
0.0096	CN1CCN(CC(O)CN2CCc3ccccc3C2)C(=O)c2cc(Nc3ccnnc3)ccc21 (centres unmarked) [Compound 45, 4-(3-(3,4-dihydroisoquinolin-2(1H)-yl)-2-hydroxypropyl)-1-methyl-7-(pyridazin-4-ylamino)-1,2,3,4-tetrahydro-5H-benzo[e][1,4]diazepin-5-one]
0.039	Cn1cc(Nc2ccc3c(c2)C(=O)N(CC(O)CN2CCc4ccccc4C2)CCO3)cn1 (centres unmarked) [Compound 29]
0.69	O=C1c2nc(Nc3ccnnc3)ccc2OCCN1CC(O)CN1CCc2ccccc2C1 (centres unmarked) [Compound 49, 4-(3-(3,4-dihydroisoquinolin-2(1H)-yl)-2-hydroxypropyl)-7-(pyridazin-4-ylamino)-3,4-dihydropyrido[2,3-f][1,4]oxazepin-5(2H)-one]
0.0099	Cn1nccc1Nc1ccc2c(c1)C(=O)N(C[C@H](O)CN1CCc3ccccc3C1)CCO2 [Compound 41, (R)-4-(3-(3,4-dihydroisoquinolin-2(1H)-yl)-2-hydroxypropyl)-7-((1-methyl-1H-pyrazol-5-yl)amino)-3,4-dihydrobenzo[f][1,4]oxazepin-5(2H)-one]
0.0136	O=C1c2cc(Nc3cnccn3)ccc2OCCN1C[C@H](O)CN1CCc2ccccc2C1 [Compound 38, (R)-4-(3-(3,4-dihydroisoquinolin-2(1H)-yl)-2-hydroxypropyl)-7-(pyrazin-2-ylamino)-3,4-dihydrobenzo[f][1,4]oxazepin-5(2H)-one]
